pIC50: −log10 of the molar value. Converted amounts (≈) assume the structure as drawn. “Also recorded” adds a separate entry of the source. Read-outs that look alike come from different tables or passages of the source. Marks after values point to notes of the source that are not given here.
Experiments:
male Jcl:ICR mice [1] = assay: Sub-acute toxicity, 14 days oral: body weight; assay type: in vivo; details: 125 mg/kg oral, end of 14-day period
Procedure: (§1) The sub-acute toxicity effects were assessed after repeated (14 days) oral administration to male mice. […] The experiments were performed with male Jcl: ICR mice at the same age of 6 weeks and weighing approximately 30–35 g, in which the substances were administered daily for 14 days orally with a gastric tube at approximately the same time of the day. The compounds were solubilized with Tween 80 (0.1%) in distilled water and administered orally in a volume of 0.1 mL per 10.0 g. Animals were observed daily for behavioral changes and signs of toxicity. All results were compared with the positive control isoniazid (INH).
(§2) Serum biochemical parameters were assessed as follows.

male Jcl:ICR mice [2] = assay: Sub-acute toxicity, 14 days oral: complete blood count; assay type: in vivo
Procedure: as §1, §2

male Jcl:ICR mice [3] = assay: Sub-acute toxicity, 14 days oral: serum biochemical parameters; assay type: in vivo; details: serum
Procedure: as §1, §2

DPPH assay = details: 0.1 mM DPPH in methanol, 30 min
Procedure: DPPH (2,2′-diphenyl-1-picrylhydrazyl radical) assay analysis of pure compounds was conducted by the method described by Brand-Williams et al.. First, 500 μL of the test solutions were added to 500 μL of a freshly prepared solution of 0.1 mM DPPH in methanol and incubated in the dark for 30 min. Then the absorbance at 517 nm (A517) was measured against a mixture of DPPH solution and methanol (1:1) as a control.
(§3) All data are presented as IC50, which gave 50% inhibition of the activities and compared against the activity of Trolox—a common antioxidant, at the same concentrations.

ABTS•+ assay = details: 15 min at 37 °C
Procedure: ABTS (2,2′-azino-bis (3-ethylbenzthiazoline-6-sulphonic acid) (7.0 mM) was mixed with potassium persulfate (2.45 mM) to obtain the cationic radical (ABTS•+) The solution was diluted in methanol (2 mL ABTS•+ + 58 mL methanol). The absorption at 743 nm of the resulting working solution was 1.1 ± 0.02 AU. Then, 1.425 mL of ABTS•+ working solution was added to 75 μL of the test drugs, and the absorption at 743 nm was measured after 15 min of incubation at 37 °C against methanol. A blank containing 75 μL of water instead of the test extract also was measured against methanol.
as §3

[4] = system: GSH in the liver homogenate; assay: Total glutathione in liver homogenate; assay type: in vivo, mice; details: both doses (125 and 250 mg/kg) oral, 14 days
Procedure: as §2
According to Rahman et al. total glutathione (tGSH) concentration was determined. In the reaction between GSH and 5,5′-dithiobis-2-nitrobenzoic acid (DTNB), the rate of formation of colored substance, 5′-thio-2-nitrobenzoic acid (TNB), is proportional to the concentration of tGSH in the sample. The maximal absorption of colored TNB is at 412 nm. The concentration of tGSH was calculated using oxidized glutathione as a reference standard and was expressed as ng/mg protein.

[5] = system: Glutathione peroxidase in the liver supernatant; assay: Glutathione peroxidase activity in liver supernatant; assay type: in vivo, mice; details: 125 and 250 mg/kg oral, 14 days; vs controls
Procedure: as §2
The Glutathione Peroxidase Cellular Activity Assay Kit (Cat. No. CGP1) and Glutathione Reductase Assay Kit (Cat. No. GRSA) were used to measure the activities of glutathione-related enzymes.

female Jcl:ICR mice [6] = details: i.p.; for Lethality: female mice
female Jcl:ICR mice [7] = system: female Jcl:ICR mice
[8] = system: M. tuberculosis H37Rv reference strain; details: cited from earlier work
in vivo = details: female, Jcl:ICR, mouse, po
HEK-293T = details: cited from earlier work
[9] = system: MDA in the liver homogenate; assay: Endogenous MDA (spontaneous lipid peroxidation) in liver homogenate; details: both doses (125 and 250 mg/kg) oral, 14 days
Procedure: On day 14, the animals were anesthetized with ketamine/ xylazine and decapitated. […] Livers were taken to assess oxidative stress and antioxidant status in the study groups.
For the in vivo experiments (spontaneous lipid peroxidation) the postnuclear homogenates of the liver (mg protein/mL) in 0.15 M KCl—10 mM potassium phosphate buffer, pH 7.2, were heated for 15 min at 100 °C in the presence of 40% TCA + 5N HCl + 2% thiobarbituric acid (2:1:2 v/v) for color developing. After cooling and centrifugation, the absorbance was read at 532 nm against dd H2O as blank. The values were expressed in nmoles malondialdehyde (MDA) per mg protein, with a molar extinction coefficient of 1.56 × 10^−5 M^−1cm^−1.

SMILES: COc1cc(C=NNC(=O)c2snnc2C)ccc1O [3a, N′-[(4-hydroxy-3-methoxyphenyl)methylidene]-4-methyl-1,2,3-thiadiazole-5-carbohydrazide]
- Body weight gain compared to the beginning of the experimental period (male Jcl:ICR mice [1]): 41%
- HCT (male Jcl:ICR mice [2]; 125 mg/kg oral): 37.2 ± 2.6 ^+ %
- Hgb (male Jcl:ICR mice [2]; 125 mg/kg oral): 127 ± 5.4 ^+ g/L
- PLT (male Jcl:ICR mice [2]; 125 mg/kg oral): 979 ± 238 10^9/L
- RBC (male Jcl:ICR mice [2]; 125 mg/kg oral): 6.84 ± 0.3 ^+ × 10^12/L
- WBC (male Jcl:ICR mice [2]; 125 mg/kg oral): 6.3 ± 0.36 ^+ × 10^9/L
- HCT (male Jcl:ICR mice [2]; 250 mg/kg oral): 38.2 ± 1.8 ^+ %
- Hgb (male Jcl:ICR mice [2]; 250 mg/kg oral): 129 ± 3.8 ^+ g/L
- PLT (male Jcl:ICR mice [2]; 250 mg/kg oral): 638 ± 181 10^9/L
- RBC (male Jcl:ICR mice [2]; 250 mg/kg oral): 6.97± 0.3 ^+ × 10^12/L
- WBC (male Jcl:ICR mice [2]; 250 mg/kg oral): 7.4 ± 0.44 *^+ × 10^9/L
- CBC deviations from the reference values (male Jcl:ICR mice [2]; both doses (125 and 250 mg/kg) oral): no statistically significant deviations from the reference values
- ALAT (male Jcl:ICR mice [3]; 125 mg/kg oral): 62.2 ± 3.3 ^+ U/L
- ALB (male Jcl:ICR mice [3]; 125 mg/kg oral): 26.6 ± 2.2 ^+ g/L
- ASAT (male Jcl:ICR mice [3]; 125 mg/kg oral): 102 ± 3.6 ^+ U/L
- CREAT (male Jcl:ICR mice [3]; 125 mg/kg oral): 95.6 ± 6.6 ^+ µmol/L
- D-Bil (male Jcl:ICR mice [3]; 125 mg/kg oral): 3.4 ± 0.46 ^+ µmol/L
- GLU (male Jcl:ICR mice [3]; 125 mg/kg oral): 6.3 ± 0.36 mmol/L
- T-Bil (male Jcl:ICR mice [3]; 125 mg/kg oral): 7.6 ± 0.44 ^+ µmol/L
- TP (male Jcl:ICR mice [3]; 125 mg/kg oral): 54.3 ± 2.6 ^+ g/L
- UA (male Jcl:ICR mice [3]; 125 mg/kg oral): 163 ± 23.4 µmol/L
- UREA (male Jcl:ICR mice [3]; 125 mg/kg oral): 8.8 ± 0.28 ^+ mmol/L
- ALAT (male Jcl:ICR mice [3]; 250 mg/kg oral): 71.4 ± 3.4 *^+ U/L
- ALB (male Jcl:ICR mice [3]; 250 mg/kg oral): 27.3 ± 3.1 ^+ g/L
- ASAT (male Jcl:ICR mice [3]; 250 mg/kg oral): 113 ± 4.1 U/L
- CREAT (male Jcl:ICR mice [3]; 250 mg/kg oral): 86.4 ± 5.6 ^+ µmol/L
- D-Bil (male Jcl:ICR mice [3]; 250 mg/kg oral): 4.9 ± 0.34 ^+ µmol/L
- GLU (male Jcl:ICR mice [3]; 250 mg/kg oral): 7.1 ± 0.24 mmol/L
- T-Bil (male Jcl:ICR mice [3]; 250 mg/kg oral): 8.3 ± 0.28 ^+ µmol/L
- TP (male Jcl:ICR mice [3]; 250 mg/kg oral): 58.6 ± 3.6 ^+ g/L
- UA (male Jcl:ICR mice [3]; 250 mg/kg oral): 194 ± 17.7 µmol/L
- UREA (male Jcl:ICR mice [3]; 250 mg/kg oral): 11.5 ± 0.22 ^+ mmol/L
- DPPH Scavenging, IC50 (DPPH assay): 47.5 * mg/mL
- ABTS Scavenging, IC50 (ABTS•+ assay): 89.47 * mg/mL
- level of GSH in liver homogenate [4]: did not significantly increase the level of GSH
- activity of GPx in liver [5]: restored the control values of GPx; also recorded: did not statistically significantly alter
- Lethality (female Jcl:ICR mice [6]; 500 mg/kg b.w.): 0/3
- Lethality (female Jcl:ICR mice [6]; 1000 mg/kg b.w.): 0/3
- Symptoms before Death Occur (female Jcl:ICR mice [6]; 1500 mg/kg b.w.): Delayed reflexes, somnolence, lethal outcome
- Time of Occurrence of Fatal Outcome (female Jcl:ICR mice [6]; 1500 mg/kg b.w.): After 30 h
- Symptoms before Death Occur (female Jcl:ICR mice [6]; 2000 mg/kg b.w.): Impaired coordination, rapid breathing, lethal outcome
- Time of Occurrence of Fatal Outcome (female Jcl:ICR mice [6]; 2000 mg/kg b.w.): After 24 h
- Symptoms before Death Occur (female Jcl:ICR mice [6]; 3000 mg/kg b.w.): Respiratory failure with long pauses, ataxia, piloerection, seizures, lethal outcome
- Time of Occurrence of Fatal Outcome (female Jcl:ICR mice [6]; 3000 mg/kg b.w.): After 20 h
- resorption index (IR) = LD50 i.p./LD50 p.os. × 100 (female Jcl:ICR mice [7]; mice): ≈ 49%; also recorded: ≈ 98%
- Mortality (female Jcl:ICR mice [7]; oral administration, highest dose of 3000 mg/kg): No mortality
- MIC ([8]; ref [23]): 0.0730 µM (≈ 0.0213 µg/mL)
- LD50 at 14 days (in vivo): > 2500 mg/kg
- pIC50 (HEK-293T): 3.59
- MDA content in the liver [9]: restoration of MDA to the control levels

SMILES: COc1ccc2[nH]cc(C=NNC(=O)c3ccco3)c2c1 [3b, N′-[(5-methoxy-1H-indol-3-yl)methylidene]furan-2-carbohydrazide]
- Body weight gain compared to the beginning of the experimental period (male Jcl:ICR mice [1]): 44%
- HCT (male Jcl:ICR mice [2]; 125 mg/kg oral): 39.6 ± 0.8 ^+ %
- Hgb (male Jcl:ICR mice [2]; 125 mg/kg oral): 132.2 ± 4.2 ^+ g/L
- PLT (male Jcl:ICR mice [2]; 125 mg/kg oral): 729 ± 203 10^9/L
- RBC (male Jcl:ICR mice [2]; 125 mg/kg oral): 7.21 ± 0.16 ^+ × 10^12/L
- WBC (male Jcl:ICR mice [2]; 125 mg/kg oral): 8.2 ± 0.28 *^+ × 10^9/L
- HCT (male Jcl:ICR mice [2]; 250 mg/kg oral): 40.1 ± 1.2 ^+ %
- Hgb (male Jcl:ICR mice [2]; 250 mg/kg oral): 130.2 ± 3.7 ^+ g/L
- PLT (male Jcl:ICR mice [2]; 250 mg/kg oral): 864 ± 212 10^9/L
- RBC (male Jcl:ICR mice [2]; 250 mg/kg oral): 7.62 ± 0.24 ^+ × 10^12/L
- WBC (male Jcl:ICR mice [2]; 250 mg/kg oral): 7.7 ± 0.33 *^+ × 10^9/L
- ALAT (male Jcl:ICR mice [3]; 125 mg/kg oral): 77.2 ± 2.8 *^+ U/L
- ALB (male Jcl:ICR mice [3]; 125 mg/kg oral): 28.5 ± 3.3 ^+ g/L
- ASAT (male Jcl:ICR mice [3]; 125 mg/kg oral): 112.1 ± 4.4 U/L
- CREAT (male Jcl:ICR mice [3]; 125 mg/kg oral): 88.2 ± 3.1 ^+ µmol/L
- D-Bil (male Jcl:ICR mice [3]; 125 mg/kg oral): 5.1 ± 0.23 ^+ µmol/L
- GLU (male Jcl:ICR mice [3]; 125 mg/kg oral): 6.8 ± 0.22 mmol/L
- T-Bil (male Jcl:ICR mice [3]; 125 mg/kg oral): 7.8 ± 0.23 ^+ µmol/L
- TP (male Jcl:ICR mice [3]; 125 mg/kg oral): 56.6 ± 4.2 ^+ g/L
- UA (male Jcl:ICR mice [3]; 125 mg/kg oral): 199 ± 14.6 µmol/L
- UREA (male Jcl:ICR mice [3]; 125 mg/kg oral): 8.7 ± 0.26 ^+ mmol/L
- ALAT (male Jcl:ICR mice [3]; 250 mg/kg oral): 71.2 ± 1.9 *^+ U/L
- ALB (male Jcl:ICR mice [3]; 250 mg/kg oral): 28.2 ± 2.8 g/L
- ASAT (male Jcl:ICR mice [3]; 250 mg/kg oral): 110 ± 3.1 U/L
- CREAT (male Jcl:ICR mice [3]; 250 mg/kg oral): 92.2 ± 4.4 ^+ µmol/L
- D-Bil (male Jcl:ICR mice [3]; 250 mg/kg oral): 3.8 ± 0.42 ^+ µmol/L
- GLU (male Jcl:ICR mice [3]; 250 mg/kg oral): 7.0 ± 0.16 mmol/L
- T-Bil (male Jcl:ICR mice [3]; 250 mg/kg oral): 8.1 ± 0.32 ^+ µmol/L
- TP (male Jcl:ICR mice [3]; 250 mg/kg oral): 52.2 ± 5.1 ^+ g/L
- UA (male Jcl:ICR mice [3]; 250 mg/kg oral): 201.3 ± 12 µmol/L
- UREA (male Jcl:ICR mice [3]; 250 mg/kg oral): 8.4 ± 0.23 ^+ mmol/L
- DPPH Scavenging, IC50 (DPPH assay): 18.69 * mg/mL
- ABTS Scavenging, IC50 (ABTS•+ assay): 40.35 * mg/mL
- level of GSH in liver homogenate [4]: did not significantly increase the level of GSH
- activity of GPx in liver [5]: restored the control values of GPx; also recorded: did not statistically significantly alter
- Lethality (female Jcl:ICR mice [6]; 500 mg/kg b.w.): 0/3
- Lethality (female Jcl:ICR mice [6]; 1000 mg/kg b.w.): 0/3
- Lethality (female Jcl:ICR mice [6]; 1500 mg/kg b.w.): 0/3
- Lethality (female Jcl:ICR mice [6]; 2000 mg/kg b.w.): 0/3
- Symptoms before Death Occur (female Jcl:ICR mice [6]; 3000 mg/kg b.w.): Impaired coordination, rapid breathing, clonic seizures, death
- Time of Occurrence of Fatal Outcome (female Jcl:ICR mice [6]; 3000 mg/kg b.w.): After 3 h
- MIC ([8]; ref [22]): 0.4412 µM (≈ 0.125 µg/mL)
- pIC50 (HEK-293T): 3.55

From publication PMC9862026, “In Vivo Toxicity, Redox-Modulating Capacity and Intestinal Permeability of Novel Aroylhydrazone Derivatives as Anti-Tuberculosis Agents” (Pharmaceutics, 2022)
